Source: paper PMC9914926, “Bioactive Compounds of Underground Valerian Extracts and Their Effect on Inhibiting Metabolic Syndrome-Related Enzymes Activities” (Foods, 2023)
Where two headings read alike, the source gives them in different places.

Key:
α-glucosidase = α-glucosidase inhibition assay; type: biochemical
pancreatic lipase = target: T1, pancreatic lipase (Homo sapiens, UniProt P16233); assay: lipase inhibition assay; type: biochemical; conditions: for inhibition of pancreatic lipase activity: 0.5–2 mg/mL
T1 sequence (P16233 17-465): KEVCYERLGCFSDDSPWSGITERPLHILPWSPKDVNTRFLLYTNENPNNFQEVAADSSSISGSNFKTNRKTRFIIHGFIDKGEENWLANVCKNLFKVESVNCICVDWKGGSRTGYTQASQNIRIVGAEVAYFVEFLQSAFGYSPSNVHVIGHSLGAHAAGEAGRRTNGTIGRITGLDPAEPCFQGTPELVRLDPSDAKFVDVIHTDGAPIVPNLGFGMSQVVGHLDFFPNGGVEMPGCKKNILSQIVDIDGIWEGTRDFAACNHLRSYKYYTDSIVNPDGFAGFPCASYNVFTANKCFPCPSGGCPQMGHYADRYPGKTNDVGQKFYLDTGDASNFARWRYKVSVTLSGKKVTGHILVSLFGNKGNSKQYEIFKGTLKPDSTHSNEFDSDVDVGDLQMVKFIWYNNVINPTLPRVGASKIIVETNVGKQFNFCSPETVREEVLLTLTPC

rabbit lung ACE = target: T2, rabbit lung ACE (Oryctolagus cuniculus, UniProt P12822); assay: ACE inhibition assay (hippuric acid by HPLC); type: biochemical
T2 construct: purchased Sigma-Aldrich (St. Louis, MO, USA); host or cells: rabbit lung
T2 sequence (P12822 34-1310): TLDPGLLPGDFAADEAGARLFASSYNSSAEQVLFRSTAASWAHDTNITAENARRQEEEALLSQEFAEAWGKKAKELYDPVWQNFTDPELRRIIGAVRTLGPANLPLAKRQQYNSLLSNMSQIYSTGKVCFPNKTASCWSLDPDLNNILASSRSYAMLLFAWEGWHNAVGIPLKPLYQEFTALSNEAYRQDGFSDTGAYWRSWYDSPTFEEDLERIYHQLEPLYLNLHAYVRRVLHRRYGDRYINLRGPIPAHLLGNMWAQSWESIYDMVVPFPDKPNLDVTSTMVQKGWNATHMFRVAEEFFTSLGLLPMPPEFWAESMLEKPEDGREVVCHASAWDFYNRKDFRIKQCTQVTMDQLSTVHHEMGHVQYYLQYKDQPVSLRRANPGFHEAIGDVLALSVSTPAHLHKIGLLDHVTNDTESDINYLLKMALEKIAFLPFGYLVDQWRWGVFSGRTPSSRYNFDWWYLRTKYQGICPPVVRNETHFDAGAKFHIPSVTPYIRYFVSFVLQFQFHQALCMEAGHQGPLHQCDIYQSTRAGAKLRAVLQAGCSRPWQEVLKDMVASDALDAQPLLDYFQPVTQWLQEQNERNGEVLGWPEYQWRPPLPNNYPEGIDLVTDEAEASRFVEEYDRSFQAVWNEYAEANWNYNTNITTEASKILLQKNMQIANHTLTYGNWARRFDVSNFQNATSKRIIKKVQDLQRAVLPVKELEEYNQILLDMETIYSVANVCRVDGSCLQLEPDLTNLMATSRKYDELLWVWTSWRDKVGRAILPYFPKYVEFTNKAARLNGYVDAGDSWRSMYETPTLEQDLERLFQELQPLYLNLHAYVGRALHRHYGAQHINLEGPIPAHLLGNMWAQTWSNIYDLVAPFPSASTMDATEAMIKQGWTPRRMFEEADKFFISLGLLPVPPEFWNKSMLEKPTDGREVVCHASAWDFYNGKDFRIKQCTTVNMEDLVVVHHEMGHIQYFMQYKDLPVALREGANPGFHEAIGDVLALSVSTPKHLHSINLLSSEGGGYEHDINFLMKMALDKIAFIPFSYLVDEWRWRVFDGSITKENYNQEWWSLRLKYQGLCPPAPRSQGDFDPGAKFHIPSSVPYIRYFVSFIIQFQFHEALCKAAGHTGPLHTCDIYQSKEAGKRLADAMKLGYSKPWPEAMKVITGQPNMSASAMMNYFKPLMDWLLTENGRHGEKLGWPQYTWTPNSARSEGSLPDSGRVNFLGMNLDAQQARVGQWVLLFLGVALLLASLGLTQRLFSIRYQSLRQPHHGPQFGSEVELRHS

[1] = scavenging ability on DPPH radicals; conditions: 0–250 μg/mL
Method: The scavenging ability of each extract on DPPH radicals was determined based on the method by Shimada et al.. Each extract was prepared in methanol at 0–1000 μg extract/mL, and 4 mL was mixed with 1 mL of methanolic solution containing DPPH radicals to a final concentration of 0.2 mM DPPH. After the mixture was shaken vigorously, it was left to stand in the dark for 30 min, and then the absorbance of the mixture was measured at 517 nm against a blank. […] Ascorbic acid, BHA, α-tocopherol, acetoxyvalerenic acid, and valerenic acid were compared. Each analysis was carried out in quadruplicate.

[2] = target: T3, porcine pancreatic α-amylase (Sus scrofa, UniProt P00690); assay: α-amylase inhibition assay; type: biochemical; conditions: for inhibition of α-amylase activity: 0.5–2 mg/mL; for inhibition ability on α-amylase: dosage 0–2.5 mg/mL
T3 construct: purchased Sigma-Aldrich (St. Louis, MO, USA); host or cells: porcine pancreas
T3 sequence (P00690 16-511): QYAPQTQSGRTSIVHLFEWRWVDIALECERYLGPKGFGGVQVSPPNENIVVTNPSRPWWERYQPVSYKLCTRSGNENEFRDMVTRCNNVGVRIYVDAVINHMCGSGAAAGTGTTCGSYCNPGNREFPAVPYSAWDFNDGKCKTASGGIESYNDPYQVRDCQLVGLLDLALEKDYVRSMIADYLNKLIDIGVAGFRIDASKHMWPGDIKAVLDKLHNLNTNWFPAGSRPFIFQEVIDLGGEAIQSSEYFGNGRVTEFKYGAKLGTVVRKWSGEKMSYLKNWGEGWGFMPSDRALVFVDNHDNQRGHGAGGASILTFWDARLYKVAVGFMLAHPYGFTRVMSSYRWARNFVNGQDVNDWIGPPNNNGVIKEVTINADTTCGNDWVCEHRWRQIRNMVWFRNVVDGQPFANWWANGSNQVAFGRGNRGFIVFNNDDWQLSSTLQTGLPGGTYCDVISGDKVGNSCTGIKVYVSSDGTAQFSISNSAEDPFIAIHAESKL

[3] = read-out: IC50, ACE (converted)

IC50 (rabbit lung ACE; [3]) [mM]	SMILES	IC50, α-Glucosidase (α-glucosidase)	IC50 (pancreatic lipase) [mM]	inhibition ability on α-amylase [2]	other results
0.522	O=C(O)/C=C/c1ccc(O)c(O)c1 [Caffeic acid, caffeic acid]	1.289 ± 0.024E mg/mL	4.03	–	–
–	CC1=C2[C@H](/C=C(\C)C(=O)O)CC[C@@H](C)[C@H]2CC1 [Valerenic acid]	0.617 ± 0.028F mg/mL	–	–	inhibition of pancreatic lipase activity (pancreatic lipase): Neither; IC50, ACE (rabbit lung ACE): 0.225 ± 0.023D mg/mL; ability to scavenge DPPH radicals [1]: not able to scavenge the DPPH radicals; inhibition of α-amylase activity [2]: could not effectively inhibit
–	C[C@H]1O[C@H](O[C@H]2[C@H](O)[C@@H](O)[C@@H](O[C@H]3[C@H](O)[C@@H](O)C(O)O[C@@H]3CO)O[C@@H]2CO)[C@H](O)[C@@H](O)[C@@H]1N[C@H]1C=C(CO)[C@@H](O)[C@H](O)[C@H]1O (stereo partly drawn) [Acarbose, acarbose, reference compound]	–	–	–	inhibitory ability of α-amylase ([2]; 5–25 μg/mL): 47–88%
–	O=C(O)c1cc(O)c(O)c(O)c1 [Gallic acid, gallic acid]	2.164 ± 0.026C mg/mL	3.66	0–95.22%	IC50 (rabbit lung ACE): 12.3 mM; IC50 [2]: 7.39 mM
–	CC(=O)O[C@@H]1CC(C)=C2[C@H]1[C@H](C)CC[C@H]2/C=C(\C)C(=O)O [Acetoxyvalerenic acid, acetoxyvalerenic acid]	1.827 ± 0.005D mg/mL	–	–	inhibition of pancreatic lipase activity (pancreatic lipase): Neither; inhibitory ability on ACE (rabbit lung ACE; 2 mg/mL): 15%; ability to scavenge DPPH radicals [1]: not able to scavenge the DPPH radicals; inhibition of α-amylase activity [2]: could not effectively inhibit
13.6	O=C(/C=C/c1ccc(O)c(O)c1)O[C@@H]1C[C@](O)(C(=O)O)C[C@@H](O)[C@H]1O [Chlorogenic acid]	–	3.13	0–89.52%	IC50 ([2]; read-out: IC50, α-Amylase (converted)): 5.06 mM

SMILES	IC50 (rabbit lung ACE; [3]) [mM]	IC50, α-Glucosidase (α-glucosidase)	IC50 (pancreatic lipase) [mM]	inhibition ability on α-amylase [2]	other results
O=C(O)c1ccc(O)c(O)c1 [Protocatechuic acid, protocatechuic acid]	16	3.721 ± 0.042B mg/mL	4.37	0–88.03%	–
